Source: ChEMBL document CHEMBL3217491, “Design, synthesis and biological evaluation of imidazopyridine/pyrimidine-chalcone derivatives as potential anticancer agents” (2010)
Activity calls are given as the source filed them. The calls are words filed in the database; no cut-off is given here.

Columns and labels:
[1] = Growth inhibition of human BT549 cells after 48 hrs by SRB assay; type: functional; conditions: BT-549, 48 h
CCRF-CEM = test: Growth inhibition of human CCRF-CEM cells after 48 hrs by SRB assay; type: functional
NCI-H460 = test: Growth inhibition of human NCI-H460 cells after 48 hrs by SRB assay; type: functional; conditions: NCI-H460, 48 h
MCF7 [2] = test: Growth inhibition of human MCF7 cells after 48 hrs by SRB assay; type: functional; conditions: MCF7, 48 h
PC-3 = test: Growth inhibition of human PC3 cells after 48 hrs by SRB assay; type: functional; conditions: PC-3, 48 h
RPMI-8226 = test: Growth inhibition of human RPMI8226 cells after 48 hrs by SRB assay; type: functional; conditions: RPMI-8226, 48 h
HT-29 = test: Growth inhibition of human HT-29 cells after 48 hrs by SRB assay; type: functional; conditions: HT-29, 48 h
[3] = Growth inhibition of human SF295 cells after 48 hrs by SRB assay; type: functional; conditions: SF-295, 48 h
M14 = test: Growth inhibition of human M14 cells after 48 hrs by SRB assay; type: functional; conditions: M14, 48 h
COLO 205 = test: Growth inhibition of human COLO205 cells after 48 hrs by SRB assay; type: functional; conditions: COLO 205, 48 h
[4] = Growth inhibition of human UO31 cells after 48 hrs by SRB assay; type: functional; conditions: UO-31, 48 h
[5] = Growth inhibition of human HCT15 cells after 48 hrs by SRB assay; type: functional; conditions: HCT-15, 48 h
HOP-62 = test: Growth inhibition of human HOP62 cells after 48 hrs by SRB assay; type: functional; conditions: HOP-62, 48 h
A498 = test: Growth inhibition of human A498 cells after 48 hrs by SRB assay; type: functional; conditions: A498, 48 h
[6] = Growth inhibition of human OVCAR4 cells after 48 hrs by SRB assay; type: functional; conditions: OVCAR-4, 48 h
SNB-75 = test: Growth inhibition of human SNB75 cells after 48 hrs by SRB assay; type: functional; conditions: SNB-75, 48 h
MDA-MB-435 = test: Growth inhibition of human MDA-MB-435 cells after 48 hrs by SRB assay; type: functional; conditions: MDA-MB-435, 48 h
HCT-116 = test: Growth inhibition of human HCT116 cells after 48 hrs by SRB assay; type: functional; conditions: HCT-116, 48 h
K562 = test: Growth inhibition of human K562 cells after 48 hrs by SRB assay; type: functional; conditions: K562, 48 h
MCF7 [7] = test: Cell cycle arrest in human MCF7 cells assessed as accumulation at G2/M phase at 4 uM after 24 hrs by propidium iodide staining-based flow cytometry (reference value: 15.79%); type: functional
SR = test: Growth inhibition of human SR cells after 48 hrs by SRB assay; type: functional
[8] = Growth inhibition of human OVCAR5 cells after 48 hrs by SRB assay; type: functional; conditions: OVCAR-5, 48 h
[9] = Growth inhibition of human UACC62 cells after 48 hrs by SRB assay; type: functional; conditions: UACC-62, 48 h
ACHN = test: Growth inhibition of human ACHN cells after 48 hrs by SRB assay; type: functional
[10] = Growth inhibition of human OVCAR8 cells after 48 hrs by SRB assay; type: functional; conditions: OVCAR-8, 48 h
SNB-19 = test: Growth inhibition of human SNB19 cells after 48 hrs by SRB assay; type: functional; conditions: SNB-19, 48 h
[11] = Growth inhibition of human EKVX cells after 48 hrs by SRB assay; type: functional
SK-MEL-5 = test: Growth inhibition of human SK-MEL-5 cells after 48 hrs by SRB assay; type: functional; conditions: SK-MEL-5, 48 h
MCF7 [12] = test: Cell cycle arrest in human MCF7 cells assessed as accumulation at G0/G1 phase at 4 uM after 24 hrs by propidium iodide staining-based flow cytometry (reference value: 64.04%); type: functional
NCI-H522 = test: Growth inhibition of human NCI-H522 cells after 48 hrs by SRB assay; type: functional; conditions: NCI-H522, 48 h
MCF7 [13] = test: Growth inhibition of human MCF7 cells assessed as cell viability at 4 uM after 24 hrs by MTT assay; type: functional, cell-based
SN12C = test: Growth inhibition of human SN12C cells after 48 hrs by SRB assay; type: functional
[14] = Growth inhibition of human NCI-ADR-RES cells after 48 hrs by SRB assay; type: functional
[15] = Growth inhibition of human SF539 cells after 48 hrs by SRB assay; type: functional; conditions: SF-539, 48 h
NCI-H322M = test: Growth inhibition of human NCI-H322M cells after 48 hrs by SRB assay; type: functional
IGROV-1 = test: Growth inhibition of human IGROV1 cells after 48 hrs by SRB assay; type: functional; conditions: IGROV-1, 48 h
NCI-H23 = test: Growth inhibition of human NCI-H23 cells after 48 hrs by SRB assay; type: functional; conditions: NCI-H23, 48 h
[16] = Growth inhibition of human LOXIMVI cells after 48 hrs by SRB assay; type: functional; conditions: LOX IMVI
A549 = test: Growth inhibition of human A549 cells after 48 hrs by SRB assay; type: functional; conditions: A549, 48 h
SK-MEL-2 = test: Growth inhibition of human SK-MEL-2 cells after 48 hrs by SRB assay; type: functional; conditions: SK-MEL-2, 48 h
MCF7 [17] = test: Cell cycle arrest in human MCF7 cells assessed as accumulation at S phase at 4 uM after 24 hrs by propidium iodide staining-based flow cytometry (reference value: 20.17%); type: functional
MDA-MB-468 = test: Growth inhibition of human MDA-MB-468 cells after 48 hrs by SRB assay; type: functional; conditions: MDA-MB-468, 48 h
TK-10 = test: Growth inhibition of human TK10 cells after 48 hrs by SRB assay; type: functional; conditions: TK-10, 48 h
[18] = Growth inhibition of human HCC2998 cells after 48 hrs by SRB assay; type: functional; conditions: HCC 2998, 48 h
T47D = test: Growth inhibition of human T47D cells after 48 hrs by SRB assay; type: functional
CAKI-1 = test: Growth inhibition of human Caki1 cells after 48 hrs by SRB assay; type: functional; conditions: CAKI-1, 48 h
SK-OV-3 = test: Growth inhibition of human SKOV3 cells after 48 hrs by SRB assay; type: functional; conditions: SK-OV-3, 48 h
KM12 = test: Growth inhibition of human KM12 cells after 48 hrs by SRB assay; type: functional; conditions: KM12, 48 h
NCI-H226 = test: Growth inhibition of human NCI-H226 cells after 48 hrs by SRB assay; type: functional; conditions: NCI-H226, 48 h
[19] = Growth inhibition of human MOLT4 cells after 48 hrs by SRB assay; type: functional; conditions: MOLT-4, 48 h
Malme-3M = test: Growth inhibition of human MALME-3M cells after 48 hrs by SRB assay; type: functional
[20] = Growth inhibition of human UACC257 cells after 48 hrs by SRB assay; type: functional; conditions: UACC-257, 48 h
SF-268 = test: Growth inhibition of human SF268 cells after 48 hrs by SRB assay; type: functional; conditions: SF-268, 48 h
786-0 = test: Growth inhibition of human 786-0 cells after 48 hrs by SRB assay; type: functional; conditions: 786-0, 48 h
U-251 = test: Growth inhibition of human U251 cells after 48 hrs by SRB assay; type: functional; conditions: U-251, 48 h
MDA-MB-231 = test: Growth inhibition of human MDA-MB-231 cells after 48 hrs by SRB assay; type: functional; conditions: MDA-MB-231, 48 h
[21] = Growth inhibition of human HOP92 cells after 48 hrs by SRB assay; type: functional; conditions: HOP-92, 48 h
[22] = Growth inhibition of human OVCAR3 cells after 48 hrs by SRB assay; type: functional; conditions: OVCAR-3, 48 h
HL-60(TB) = test: Growth inhibition of human HL-60(TB) cells after 48 hrs by SRB assay; type: functional; conditions: HL-60, 48 h
DU-145 = test: Growth inhibition of human DU145 cells after 48 hrs by SRB assay; type: functional; conditions: DU-145, 48 h

Question: What does the source list for `COc1cc(C(=O)/C=C/c2c(-c3cccs3)nc3ccccn23)cc(OC)c1OC`?
Answer: GI50 [1]: 1.86 µM; GI50 (CCRF-CEM): 1.66 µM; GI50 (NCI-H460): 1.42 µM; GI50 (MCF7 [2]): 1.12 µM; GI50 (PC-3): 2.63 µM; GI50 (RPMI-8226): 1.34 µM; GI50 (HT-29): 2.09 µM; GI50 [3]: 2.24 µM; GI50 (M14): 2.08 µM; GI50 (COLO 205): 1.77 µM; GI50 [4]: 1.07 µM; GI50 [5]: 1.6 µM; GI50 (HOP-62): 2.88 µM; GI50 (A498): 0.98 µM; GI50 [6]: 3.13 µM; GI50 (SNB-75): 2.68 µM; GI50 (MDA-MB-435): 2.49 µM; GI50 (HCT-116): 1.63 µM; GI50 (K562): 1.51 µM; Activity (MCF7 [7]): 1.11%; GI50 (SR): 1.23 µM; GI50 [8]: 2.64 µM; GI50 [9]: 1.61 µM; GI50 (ACHN): 2.09 µM; GI50 [10]: 1.68 µM; GI50 (SNB-19): 2.1 µM; GI50 [11]: 3.12 µM; GI50 (SK-MEL-5): 1.33 µM; Activity (MCF7 [12]): 92.41%; GI50 (NCI-H522): 1.1 µM; inhibition (MCF7 [13]): Active; GI50 (SN12C): 2.44 µM; GI50 [14]: 1.89 µM; GI50 [15]: 1.87 µM; GI50 (NCI-H322M): 3.02 µM; GI50 (IGROV-1): 1.89 µM; GI50 (NCI-H23): 2.2 µM; GI50 [16]: 1.87 µM; GI50 (A549): 2.04 µM; GI50 (SK-MEL-2): 2.27 µM; Activity (MCF7 [17]): 6.48%; GI50 (MDA-MB-468): 1.72 µM; GI50 (TK-10): 3.78 µM; GI50 [18]: 1.96 µM; GI50 (T47D): 1.72 µM; GI50 (CAKI-1): 2.31 µM; GI50 (SK-OV-3): 3.01 µM; GI50 (KM12): 1.32 µM; GI50 (NCI-H226): 2.04 µM; GI50 [19]: 1.77 µM; GI50 (Malme-3M): 3.65 µM; GI50 [20]: 1.88 µM; GI50 (SF-268): 2.37 µM; GI50 (786-0): 2.31 µM; GI50 (U-251): 1.66 µM; GI50 (MDA-MB-231): 3.08 µM; GI50 [21]: 0.28 µM; GI50 [22]: 2.44 µM; GI50 (HL-60(TB)): 2.01 µM; GI50 (DU-145): 1.9 µM
